# Data taken from patent US6291527A (priority 1998, dated 2001).
# Entries after “also recorded” stand apart in the source; their conditions may differ. Read-outs that look alike come from different tables or passages of the source.
# Experiments:
# [1] = test system: inflammatory exudate (IE); assay: foreign body (sponge) method in the rat: inflammatory exudate volume; type: in vivo; conditions: rat, oral, 10 mg/kg, 8 hours
# Procedure: (§1) These tests involved the use of 100 male CD strain rats (Charles River, Calco, LC, Italy) weighing 180±8 g. The animals were fasted for 12 hours (water ad libitum) before being used for the experiment.
# (§2) The inflammatory reaction with the formation of exudate was induced by using sterilized polyester sponges (4×1.5×0.5 cm) soaked in carrageen dissolved at a 2% concentration in sterile physiological solution. The rats were anesthetized lightly with ether and two sponges per rat were implanted subcutaneously in a previously shaven dorsal area.
# (§3) The sponges were removed 8 hours later after having sacrificed the animals by ether euthanasia, and immediately placed in large polyethylene 50 ml test tubes containing 10 ml of heparinized physiological solution. The test tubes were then subjected to centrifugation (1000 rotations; 15 minutes), followed by removal of the sponges and accurate measurement of the volume of the remaining fluid. Always using the Higgs et al. method, the acid lipids present in the fluid were extracted in chloroform with prior dilution in ethanol and acidification to pH 3. After complete evaporation of the chloroform, the remaining dry residue was dissolved in physiological solution and used for the immunoenzymatic assay of prostaglandin E2 (PGE2).
# (§4) All the other reagents used for the tests were purchased from Merck-Bracco (Milan, Italy).
# prostaglandin E2 (PGE2) = assay: foreign body (sponge) method in the rat: PGE2 in the inflammatory exudate (immunoenzymatic assay); type: in vivo; conditions: rat, oral, 10 mg/kg, 8 hours
# Procedure: as §1, §2, §3, §4
# [2] = high quantities, intact and abraded skin, also long term; cited from earlier work
# [3] = 100 mg i.m., cited from earlier work
# [4] = Ketoprofen gel, cited from earlier work
# [5] = 100 mg i.m., approx. 3 hours before operation; cited from earlier work
# [6] = synovial fluid, 50 mg oral; cited from earlier work
# [7] = in vivo; cited from earlier work
# rat = conditions: cited from earlier work
# [8] = cited from earlier work
# carrageen edema = carrageen edema test in the rat (hind paw volume, plethysmometer); conditions: rat, oral
# [9] = once a day for three days, 12 hours
structure (smiles),measurement,setting,value
"CC(C(=O)O)c1cccc(C(=O)c2ccccc2)c1 (stereo not drawn) [Ketoprofen, 3-Benzoyl-α-methylbenzeneacetic acid]",% inhibition versus controls of IE,[1],58.6%
same,IE (inflammatory exudate) volume,"[1]; mean ± MSE, controls 5.15 ± 0.28",2.13 ± 0.15 mL
same,% inhibition versus controls of PGE2,prostaglandin E2 (PGE2),49.7%
same,PGE2 concentration in the inflammatory exudate,"prostaglandin E2 (PGE2); mean, controls 98.7 ± 4.7",49.6 ng/mL
same,tolerability / toxicity following dermal application,[2],excellent tolerability and lack of acute and chronic toxicity; also recorded: did not induce any local or general harm
same,penetration into the joints,[3]; 15 minutes,penetrates promptly into the joints
same,serum and synovial concentration at equilibrium,[3]; 3.5 hours,1.3 µg/mL
same,mean resident time in the joints vs serum,[3],about three times longer than that observed in serum
same,time of equilibrium of serum and synovial concentrations,[3],3.5 h
same,AUC of the free Ketoprofen fraction in serum,[3]; serum,127 ng·h/mL
same,time of maximum serum concentration,[3]; serum,30 min
same,AUC of the free Ketoprofen fraction in synovial fluid,[3]; synovial fluid,119 ng·h/mL
same,concentration when first detectable,"[4]; 2nd hour, matrix not stated",6.3 ng/mL
same,concentration in capsular tissue,[4]; [9],2.36 µg/g
same,concentration in intraarticular adipose tissue,[4]; [9],4.70 µg/g
same,concentration in synovial fluid,[4]; [9],1.31 µg/g
same,concentration in the joint vs systemic circulation,[4],greater active substance concentration in the joint than in systemic circulation
same,duration of constant values,[4],12 h
same,time to peak concentration,[4],after six hours
same,mean value in blood,[5],1.39 µg/g
same,mean value in bone,[5],0.25 µg/g
same,mean value in fat,[5],0.28 µg/g
same,mean value in muscle,[5],0.26 µg/g
same,mean value in synovial fluid,[5],0.85 µg/g
same,mean value in synovial membrane,[5],0.32 µg/g
same,time of synovial peak,[6],approximately two hours after the plasma peak
same,elimination with the feces,[7],1%
same,oral LD50,rat,165 mg/kg
same,time to peak concentration,[8]; intramuscular,≤ 30 min
same,"intraarticular concentrations vs serum and plasma, conclusion",[8]; various routes of administration,"reach peak levels later with respect to those observable in serum and plasma, but remain at higher levels than the latter for a longer period after treatment and always with higher values compared to those present in circulatory flow"
same,anti-inflammatory / anti-edematogenic effect,carrageen edema,also resulted as having anti-inflammatory activity
same,evolution of paw volume (delta in ml) at 1st hour,"carrageen edema; 10 mg/kg, 1st hour, mean ± MSE",0.19 ± 0.02 mL
same,evolution of paw volume (delta in ml) at 2nd hour,"carrageen edema; 10 mg/kg, 2nd hour, mean ± MSE",0.33 ± 0.03 mL
same,evolution of paw volume (delta in ml) at 3rd hour,"carrageen edema; 10 mg/kg, 3rd hour, mean ± MSE",0.41 ± 0.02 mL
same,evolution of paw volume (delta in ml) at 4th hour,"carrageen edema; 10 mg/kg, 4th hour, mean ± MSE",0.42 ± 0.02 mL
same,evolution of paw volume (delta in ml) at 5th hour,"carrageen edema; 10 mg/kg, 5th hour, mean ± MSE",0.40 ± 0.03 mL
same,evolution of paw volume (delta in ml) at 6th hour,"carrageen edema; 10 mg/kg, 6th hour, mean ± MSE",0.37 ± 0.03 mL
same,% inhibition vs controls (paw edema AUC),"carrageen edema; 10 mg/kg, p < 0.001",54.1%
same,AUC (mean ± MSE) of increase in paw volume,"carrageen edema; 10 mg/kg, paw volume (delta in ml) vs time (0 to 6 hours), controls 4.23 ± 0.26",1.94 ± 0.10
